Experimental findings from patent US20050026866A1 (priority 2002, published 2005) are described below.

Read-outs that look alike come from different tables or passages of the source.

What all share (format): cell-based
Test [1] deals with Bordetella attachment and invasion into human melanoma cell line Skmel-23/C22. How it is done:
Bordetella pertussis was cultured for 48-72 h on Bordet-Gengou agar plates (Remel, Inc.) in a 37° C. incubator. Prior to exposure of bacteria to mammalian cells (15-30 minutes), the bacteria were loop-transferred to Luria-Bertani (LB) liquid growth medium and adjusted to a concentration of 10^9 cfu/ml (OD600=0.5). Human Skmel-23/C22 metastatic melanoma cells, normal human melanocytes, or normal human fibroblasts were inoculated into Corning 12 well tissue culture plates (2-4×10^4 cells/well) in antibiotic-free DMEM growth medium supplemented with 10% fetal bovine serum, and placed in a gassed, humidified incubator, at 37° C. After 24 h, melanoma cells were fed with 1 ml fresh medium, and 15-20 h later, Bordetella pertussis strain 536 was added as described below. Potential inhibitors of Bordetella attachment and invasion of melanoma cells were added immediately before, or up to 2 h before addition of bacteria, as noted. […] Melanoma cells were then plated onto Bordet-Gengou agar plates in serial dilutions, incubated at 37° for 4d, and Bordetella pertussis were quantitated by colony counts as ‘colony forming units’ (cfu). […]
Structural requirements on cancer cells for attachment and invasion of B. pertussis. Quantitative invasion assays were carried out with various additives to investigate structural requirements on human melanoma cells for attachment and invasion of B. pertussis. […]

For test [2], the system named is SKMel-23 human melanoma cells. The settings on record: L-histidine alone, no B. pertussis strain. How it is done:
Skmel-23/C22 human melanoma cells were cultured 15 h with or without the addition of B. pertussis to the culture medium.
(§1) Cancer cells tested were human carcinomas of the breast, lung, and kidney, and melanoma. Toxicity of B. pertussis strain 536, but not of Tohama I, was dependent on the simultaneous addition of rich nutrient broth such as Luria-Bertani bacterial growth medium, or amino acid-rich broths such as tryptone or casamino acids. […] The principal active ingredient in these broths was the amino acid histidine. […] Of 18 amino acids tested, only histidine induced a Bordetella-mediated cytotoxic/lytic effect.

Test [3] deals with human carcinomas of the breast, lung, and kidney, and melanoma. The settings on record: without bacteria.
Description: as §1

As to `C[C@H](O)[C@@H](O)[C@@H](O)[C@H](O)C=O` [L-fucose], in test [1] (0.2% wt/vol, added 5 min. prior to bacteria, implied target fucosylated structures), the “Bordetella (cfu/well) (% Control +/− S.D.)” value came to 52 ± 14 % Control.
Regarding `N[C@@H](Cc1c[nH]cn1)C(=O)O` [L-histidine], the “melanoma cells/well (24 h post-treatment)” value in test [2] was 1.7 ± .07 × 10^5 melanoma cells/well. In test [2] (24 h post-treatment), the “melanoma cells/well, % untreated cultures” value is on record as 106 % untreated cultures. Besides, the “toxicity of histidine alone” value in test [3] was “no toxicity”.
For Arg-Gly-Asp [RGD], the “Bordetella (cfu/well) (% Control +/− S.D.)” value in test [1] (0.8 mg/ml, added 2 h prior to bacteria, implied target Arg-Gly-Asp tripeptide sequence) came to 50 ± 5 % Control.
